{
  "source": "patent US9901577B2",
  "about": "“Oxoquinazolinyl-butanamide derivatives” (MERCK PATENT GMBH, priority 2013, dated 2018)",
  "key": {"Tankyrase": {"tested_on": "T1, Tankyrase", "T1 construct": "TNKS cellular assay; other: DLD1 cells, Axin2 increase, 24 hours", "experiment": "Measurement of cellular inhibition of Tankyrase (Axin2 level in DLD1 cells, Luminex based assay)", "format": "cell-based", "conditions": "read-out: EC50 [M] TNKS cellular assay; DLD1 cells, Axin2 increase, 24 hours", "experimental": "Measurement of Cellular Inhibition of Tankyrase\nCells of the colon carcinoma cell line DLD1 are plated in 96 well plates with 1.5×10^4 cells per well. Next day, cells are treated with a serial dilution of test compound in seven steps as triplicates with a final DMSO concentration of 0.3%. […] The amount of isolated Axin2 protein is determined in a Luminex^200 machine (Luminex Corporation) according to the manufacturer's instruction by counting 100 events per well. […] As controls cells are treated with solvent alone (neutral control) and with a Tankyrase reference inhibitor IWR-2 (3E-06 M) which refers as control for maximum increase of Axin2. For analysis, the obtained data are normalized against the untreated solvent control and fitted for determination of the EC50 values using the Assay Explorer software (Accelrys)."}, "TNKS1": {"biological_target": "T2, TNKS1 (Homo sapiens, UniProt O95271)", "T2 construct": "GST-tagged Tnks-1 (1023-1327 aa, prepared in-house); made in house", "T2 sequence (O95271 1023-1327)": "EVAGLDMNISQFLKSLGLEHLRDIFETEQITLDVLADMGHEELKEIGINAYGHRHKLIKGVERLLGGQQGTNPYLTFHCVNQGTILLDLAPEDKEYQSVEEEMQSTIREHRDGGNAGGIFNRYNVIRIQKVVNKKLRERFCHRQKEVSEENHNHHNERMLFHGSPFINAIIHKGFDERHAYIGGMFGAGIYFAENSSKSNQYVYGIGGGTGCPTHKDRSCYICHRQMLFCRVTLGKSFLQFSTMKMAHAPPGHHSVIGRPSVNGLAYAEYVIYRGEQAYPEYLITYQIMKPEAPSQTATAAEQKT", "experiment": "TNKS1 activity ELISA (autoparsylation assay)", "format": "biochemical", "conditions": "for IC50: GST-tagged Tnks-1, read-out: IC50 [M] TNKS1 ELISA", "experimental": "(§1) Description of the TNKS1 and TNKS2 ELISA Assay\n(§2) Biochemical Activity Testing of TNKS 1 and 2: Activity ELISA (Autoparsylation Assay)\n(§3) For analysis of autoparsylation activity of TNKS 1 and 2 an activity ELISA iss performed: In the first step GST tagged TNKS is captured on a Glutathione coated plate. Then the activity assay with biotinylated NAD is performed in the absence/presence of the compounds. During the enzymatic reaction GST tagged TNKS transfers biotinylated ADP-ribose to itself from biotinylated NAD as co-substrate. For the detection streptavidin-HRP conjugate is added that binds to the biotinylated TNKS and is thereby captured to the plates. The amount of biotinylated resp. autoparsylated TNKS is detected with a luminescence substrate for HRP. The level of the luminescence signal correlates directly with the amount of autoparsylated TNKS and therefore with activity of TNKS.\n(§4) The activity ELISA is performed in 384 well Glutathione coated microtiter plates (Express capture Glutathione coated plate, Biocat, Heidelberg, Germany). The plates are pre-equilibrated with PBS. […] The plates are washed 3 times with PBS-Tween-20. The wells are blocked by incubation at room temperature for 20 minutes with 50 μl blocking buffer (PBS, 0.05% Tween-20, 0.5% BSA). Afterwards the plates are washed 3 times with PBS-Tween-20. […] The reaction is stopped by 3 times washing with PBS-Tween-20. For the detection 50 μl of 20 ng/μl Streptavidin, HRP conjugate (MoBiTec, Göttingen, Germany) in PBS/0.05% Tween-20/0.01% BSA are added and the plates are incubated for 30 minutes at room temperature. After three times washing with PBS-Tween-20 50 μl of SuperSignal ELISA Femto Maximum sensitivity substrate solution (ThermoFisherScientific (Pierce), Bonn, Germany) are added. Following a 1 minute incubation at room temperature luminescence signals are measured with an Envision multimode reader (Perkin Elmer LAS Germany GmbH) at 700 nm. The full value used is the inhibitor-free reaction. […] The inhibitory values (IC50) are determined using either the program Symyx Assay Explorer® or Condosseo® from GeneData."}, "PARP-1": {"biological_target": "T3, PARP-1 (Homo sapiens, UniProt P09874)", "T3 construct": "purchased Enzo Life Sciences GmbH, Lörrach, Germany", "T3 sequence (P09874 whole entry)": "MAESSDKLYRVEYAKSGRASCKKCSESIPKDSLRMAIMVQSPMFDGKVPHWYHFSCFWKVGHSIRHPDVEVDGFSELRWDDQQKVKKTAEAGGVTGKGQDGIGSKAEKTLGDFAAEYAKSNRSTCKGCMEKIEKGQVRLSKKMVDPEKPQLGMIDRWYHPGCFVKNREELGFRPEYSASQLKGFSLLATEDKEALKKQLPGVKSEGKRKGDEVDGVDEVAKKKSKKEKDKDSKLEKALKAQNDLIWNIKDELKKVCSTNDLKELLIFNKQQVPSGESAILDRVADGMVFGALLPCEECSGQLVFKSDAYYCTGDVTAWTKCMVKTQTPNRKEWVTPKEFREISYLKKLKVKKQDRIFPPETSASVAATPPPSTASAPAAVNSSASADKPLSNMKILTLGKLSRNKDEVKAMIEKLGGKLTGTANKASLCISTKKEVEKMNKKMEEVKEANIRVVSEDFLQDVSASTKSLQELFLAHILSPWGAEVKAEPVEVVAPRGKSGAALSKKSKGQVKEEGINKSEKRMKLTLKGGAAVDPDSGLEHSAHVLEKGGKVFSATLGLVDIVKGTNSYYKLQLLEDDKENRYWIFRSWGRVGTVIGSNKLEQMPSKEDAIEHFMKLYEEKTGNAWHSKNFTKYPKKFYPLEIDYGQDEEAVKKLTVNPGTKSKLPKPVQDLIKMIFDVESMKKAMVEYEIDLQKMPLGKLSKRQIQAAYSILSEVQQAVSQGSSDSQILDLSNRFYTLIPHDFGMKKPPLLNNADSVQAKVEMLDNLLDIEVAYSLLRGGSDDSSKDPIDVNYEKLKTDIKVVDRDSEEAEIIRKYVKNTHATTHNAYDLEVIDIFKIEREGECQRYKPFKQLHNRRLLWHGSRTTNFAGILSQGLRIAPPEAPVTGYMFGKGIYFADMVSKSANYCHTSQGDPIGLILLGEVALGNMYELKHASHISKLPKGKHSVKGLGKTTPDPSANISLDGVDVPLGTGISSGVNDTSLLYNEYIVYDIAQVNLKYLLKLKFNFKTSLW", "experiment": "PARP-1 autoparsylation assay (HTRF)", "format": "biochemical", "conditions": "His-tagged Parp-1, autoparsylation"}, "TNKS2": {"biological_target": "T4, TNKS2 (Homo sapiens, UniProt Q9H2K2)", "T4 construct": "GST-tagged Tnks-2 (873-1166 aa, prepared in-house); made in house", "T4 sequence (Q9H2K2 873-1166)": "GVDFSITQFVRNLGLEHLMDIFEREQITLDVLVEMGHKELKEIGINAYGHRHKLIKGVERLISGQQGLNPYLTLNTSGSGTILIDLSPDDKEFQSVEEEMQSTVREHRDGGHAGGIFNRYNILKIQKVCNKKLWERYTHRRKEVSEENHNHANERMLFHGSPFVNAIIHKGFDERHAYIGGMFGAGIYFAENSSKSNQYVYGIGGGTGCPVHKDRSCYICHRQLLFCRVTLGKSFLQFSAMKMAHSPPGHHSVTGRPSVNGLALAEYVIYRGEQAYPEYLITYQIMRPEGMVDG", "experiment": "TNKS2 activity ELISA (autoparsylation assay)", "format": "biochemical", "conditions": "for IC50: GST-tagged Tnks-2, read-out: IC50 [M] TNKS2 ELISA", "experimental": "as §1, §2, §3, §4"}},
  "note": "pIC50: −log10 of the molar value. Read-outs that look alike come from different tables or passages of the source.",
  "data": [
    {"molecule": "COc1ccc(C(=O)C2CCN(C(=O)CCCc3nc4c(F)cccc4c(=O)[nH]3)CC2)cc1F", "note": "[Compound A26, 8-Fluoro-2-{4-[4-(3-fluoro-4-methoxy-benzoyl)-piperidin-1-yl]-4-oxo-butyl}-3H-quinazolin-4-one]", "values": [
      {"measurement": "EC50", "setting": "Tankyrase", "result": "1.3e-09", "unit": "M"},
      {"measurement": "IC50", "setting": "TNKS1", "result": "3e-10", "unit": "M"},
      {"measurement": "IC50", "setting": "PARP-1", "result": 1300, "unit": "nM"},
      {"measurement": "IC50", "setting": "TNKS2", "result": "2e-10", "unit": "M"}
    ]},
    {"molecule": "N#Cc1ccc(OC2CCN(C(=O)CCCc3nc4ccccc4c(=O)[nH]3)CC2)cc1", "note": "[Compound A17, 4-{1-[4-(4-Oxo-3,4-dihydro-quinazolin-2-yl)-butyryl]-piperidin-4-yloxy}-benzonitrile]", "values": [
      {"measurement": "EC50", "setting": "Tankyrase", "result": "7.2e-07", "unit": "M"},
      {"measurement": "pIC50", "setting": "TNKS1", "result": 6.82},
      {"measurement": "IC50", "setting": "PARP-1", "result": 680, "unit": "nM"},
      {"measurement": "pIC50", "setting": "TNKS2", "result": 7.10}
    ]},
    {"molecule": "COc1ccc(C(=O)C2CCN(C(=O)CCCc3nc4c(F)cc(F)cc4c(=O)[nH]3)CC2)cc1C", "note": "[Compound A14, 6,8-difluoro-2-[4-[4-(4-methoxy-3-methyl-benzoyl)-1-piperidyl]-4-oxo-butyl]-3H-quinazolin-4-one]", "values": [
      {"measurement": "EC50", "setting": "Tankyrase", "result": "3.3e-09", "unit": "M"},
      {"measurement": "IC50", "setting": "TNKS1", "result": "8.6e-11", "unit": "M"},
      {"measurement": "IC50", "setting": "PARP-1", "result": 1000, "unit": "nM"},
      {"measurement": "IC50", "setting": "TNKS2", "result": "1.6e-10", "unit": "M"}
    ]},
    {"molecule": "N#Cc1cc(C2CCN(C(=O)CCCc3nc4c(F)cccc4c(=O)[nH]3)CC2)cnc1N", "note": "[Compound A34, 6-Amino-1′-[4-(8-fluoro-4-oxo-3,4-dihydro-quinazolin-2-yl)-butyryl]-1′,2′,3′,4′,5′,6′-hexahydro-[3,4]bipyridinyl-5-carbonitrile]", "values": [
      {"measurement": "EC50", "setting": "Tankyrase", "result": "3.4e-08", "unit": "M"},
      {"measurement": "IC50", "setting": "TNKS1", "result": "3.3e-09", "unit": "M"},
      {"measurement": "IC50", "setting": "PARP-1", "result": 2700, "unit": "nM"},
      {"measurement": "IC50", "setting": "TNKS2", "result": "1.6e-09", "unit": "M"}
    ]},
    {"molecule": "COc1ccc(C(=O)C2CCN(C(=O)CCCc3nc4ccccc4c(=O)[nH]3)CC2)cc1C", "note": "[Compound A13, 2-[4-[4-(4-methoxy-3-methyl-benzoyl)-1-piperidyl]-4-oxo-butyl]-3H-quinazolin-4-one]", "values": [
      {"measurement": "EC50", "setting": "Tankyrase", "result": "8.6e-10", "unit": "M"},
      {"measurement": "IC50", "setting": "TNKS1", "result": "1e-10", "unit": "M"},
      {"measurement": "IC50", "setting": "PARP-1", "result": 990, "unit": "nM"},
      {"measurement": "IC50", "setting": "TNKS2", "result": "1.3e-10", "unit": "M"}
    ]},
    {"molecule": "COc1ccc(C(=O)C2CCN(C(=O)CCCc3nc4c(F)cccc4c(=O)[nH]3)CC2)cc1C", "note": "[Compound A29, 8-Fluoro-2-{4-[4-(4-methoxy-3-methyl-benzoyl)-piperidin-1-yl]-4-oxo-butyl}-3H-quinazolin-4-one]", "values": [
      {"measurement": "EC50", "setting": "Tankyrase", "result": "6.2e-10", "unit": "M"},
      {"measurement": "IC50", "setting": "TNKS1", "result": "1.2e-10", "unit": "M"},
      {"measurement": "IC50", "setting": "PARP-1", "result": 2600, "unit": "nM"},
      {"measurement": "IC50", "setting": "TNKS2", "result": "< 1e-10", "unit": "M"}
    ]},
    {"molecule": "O=C(c1ccccc1)C1CCN(C(=O)CCCc2nc3ccccc3c(=O)[nH]2)CC1", "note": "[Compound A2, 2-[4-(4-benzoyl-piperidin-1-yl)-4-oxo-butyl]-3H-quinazolin-4-one]", "values": [
      {"measurement": "EC50", "setting": "Tankyrase", "result": "6.5e-08", "unit": "M"},
      {"measurement": "IC50", "setting": "TNKS1", "result": "7.3e-10", "unit": "M"},
      {"measurement": "IC50", "setting": "PARP-1", "result": 730, "unit": "nM"},
      {"measurement": "IC50", "setting": "TNKS2", "result": "5.5e-10", "unit": "M"}
    ]},
    {"molecule": "CCn1cc(-c2ccc(C(=O)C3CCN(C(=O)CCCc4nc5ccccc5c(=O)[nH]4)CC3)cc2)cn1", "note": "[Compound A10, 2-(4-{4-[4-(1-ethyl-1H-pyrazol-4-yl)-benzoyl]-piperidin-1-yl}-4-oxo-butyl)-3H-quinazolin-4-one]", "values": [
      {"measurement": "EC50", "setting": "Tankyrase", "result": "4.9e-09", "unit": "M"},
      {"measurement": "pIC50", "setting": "TNKS1", "result": 10.00},
      {"measurement": "IC50", "setting": "PARP-1", "result": 100, "unit": "nM"},
      {"measurement": "pIC50", "setting": "TNKS2", "result": 9.80}
    ]},
    {"molecule": "N#Cc1ccc(OC2CCN(C(=O)CCCc3nc4c(F)cccc4c(=O)[nH]3)CC2)cc1", "note": "[Compound A27, 4-{1-[4-(8-Fluoro-4-oxo-3,4-dihydro-quinazolin-2-yl)-butyryl]-piperidin-4-yloxy}-benzonitrile]", "values": [
      {"measurement": "EC50", "setting": "Tankyrase", "result": "4.4e-07", "unit": "M"},
      {"measurement": "pIC50", "setting": "TNKS1", "result": 6.82},
      {"measurement": "IC50", "setting": "PARP-1", "result": 1.3, "unit": "nM"},
      {"measurement": "pIC50", "setting": "TNKS2", "result": 7.07}
    ]},
    {"molecule": "COc1ccc(C(=O)C2CCN(C(=O)CCCc3nc4c(F)cccc4c(=O)[nH]3)CC2)cn1", "note": "[Compound A33, 8-Fluoro-2-{4-[4-(6-methoxy-pyridine-3-carbonyl)-piperidin-1-yl]-4-oxo-butyl}-3H-quinazolin-4-one]", "values": [
      {"measurement": "EC50", "setting": "Tankyrase", "result": "1.3e-08", "unit": "M"},
      {"measurement": "IC50", "setting": "TNKS1", "result": "1.3e-09", "unit": "M"},
      {"measurement": "IC50", "setting": "PARP-1", "result": 5000, "unit": "nM"},
      {"measurement": "IC50", "setting": "TNKS2", "result": "5.2e-10", "unit": "M"}
    ]},
    {"molecule": "COc1ccc(C(=O)C2CCN(C(=O)CCCc3nc4c(C)cc(F)cc4c(=O)[nH]3)CC2)cc1", "note": "[Compound A4, 6-fluoro-2-{4-[4-(4-methoxy-benzoyl)-piperidin-1-yl]-4-oxo-butyl}-8-methyl-3H-quinazolin-4-one]", "values": [
      {"measurement": "EC50", "setting": "Tankyrase", "result": "5.6e-10", "unit": "M"},
      {"measurement": "IC50", "setting": "TNKS1", "result": "6.6e-11", "unit": "M"},
      {"measurement": "IC50", "setting": "PARP-1", "result": 170, "unit": "nM"},
      {"measurement": "IC50", "setting": "TNKS2", "result": "8.9e-11", "unit": "M"}
    ]}
  ]
}
